In PMC3034307 (Bioorganic & medicinal chemistry letters, 2010):

Columns and labels:
Shp2 PTP [1] = biological target: T1, Shp2 PTP (Homo sapiens, UniProt Q06124); assay: Enzyme kinetic assay using DiFMUP as the substrate; assay type: biochemical
T1 sequence (Q06124 1-593): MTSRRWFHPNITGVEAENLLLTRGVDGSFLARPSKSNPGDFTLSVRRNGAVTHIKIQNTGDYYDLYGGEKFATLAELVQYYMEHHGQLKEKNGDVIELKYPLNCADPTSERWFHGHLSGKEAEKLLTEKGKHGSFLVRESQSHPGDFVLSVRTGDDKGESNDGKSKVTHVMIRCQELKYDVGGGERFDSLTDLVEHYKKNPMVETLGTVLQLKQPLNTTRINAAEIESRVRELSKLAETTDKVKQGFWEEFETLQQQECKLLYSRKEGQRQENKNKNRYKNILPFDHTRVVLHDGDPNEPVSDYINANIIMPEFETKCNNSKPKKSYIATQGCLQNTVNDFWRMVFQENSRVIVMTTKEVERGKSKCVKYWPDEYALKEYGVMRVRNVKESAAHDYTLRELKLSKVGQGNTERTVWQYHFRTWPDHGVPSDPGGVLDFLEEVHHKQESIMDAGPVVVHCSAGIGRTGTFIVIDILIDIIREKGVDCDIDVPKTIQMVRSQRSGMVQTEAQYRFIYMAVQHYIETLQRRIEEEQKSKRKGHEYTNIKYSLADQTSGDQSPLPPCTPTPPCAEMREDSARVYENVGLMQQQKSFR

Shp2 = biological target: T2, Shp2 (Homo sapiens, UniProt Q06124); assay: Surface plasmon resonance; assay type: binding; settings: SPR
T2 sequence (Q06124 1-593): T1 sequence (Q06124 1-593)

Shp2 PTP [2] = biological target: T1, Shp2 PTP; assay: Shp2 PTP inhibition assay; assay type: biochemical; settings: for Inhibition of Shp2 PTP activity at the highest concentration tested: 300 µM

Q: Which results are given for `C[C@]12CC[C@@H]3c4ccc(OC(=O)N(CCCl)CCCl)cc4CC[C@H]3[C@@H]1CC[C@@H]2OP(=O)(O)O` [Estramustine phosphate, estramustine phosphate]?
A: Ki (Shp2 PTP [1]): 22.8 µM; Inhibition kinetics (best fit) (Shp2 PTP [1]; DiFMUP substrate): mixed inhibition kinetics; association rate constant ka (Shp2): 2200 M⁻¹ s⁻¹

Q: With `C[C@]12CC[C@@H]3c4ccc(O)cc4CC[C@H]3[C@@H]1CC[C@@H]2O` [Estradiol, estradiol] as the compound, how does the “Inhibition of Shp2 PTP activity at the highest concentration tested” value (shortened to “Inhibition of Shp2 PTP activity”) (Shp2 PTP [2]) read?
A: did not inhibit

Q: How did the “Fold less potent than celastrol in Shp2 inhibition” value (Shp2 PTP [2]) turn out when `CC1=C(O)C(=O)C=C2C1=CC=C1[C@@]2(C)CC[C@@]2(C)[C@@H]3C[C@@H](C)C(=O)C[C@]3(C)CC[C@]12C` [Maitenin] was run?
A: 18 fold

Q: With `COc1ccc2c(c1)CC[C@@H]1[C@@H]2CC[C@@]2(C)[C@H]1CC[C@@]21CCNP(=O)(N(CCCl)CCCl)O1` (stereo partly shown) [NSC233064] as the compound, how does the “Inhibition of Shp2 PTP activity” value (Shp2 PTP [2]) read?
A: did not inhibit

Q: Which “Inhibition of Shp2 PTP activity” value (Shp2 PTP [2]) does the source give for `C[C@]12CC[C@@H]3c4ccc(OC(=O)N(CCCl)CCCl)cc4CC[C@H]3[C@@H]1CC[C@@H]2O` [Estramustine, estramustine] here?
A: did not inhibit
